Measured values from patent US9212180B2 (priority 2013, dated 2015).

Experiments:
MV4;11 [1] = experiment: Apoptosis in human MLL leukemia cell line MV4;11; assay type: cell-based; conditions: FIG. 8A
[2] = test system: MLL-AF9 transformed murine bone marrow cells; experiment: Colony forming assay in MLL-AF9 transformed murine bone marrow cells; assay type: cell-based; conditions: FIG. 10
MLL leukemia cells = experiment: Cell cycle arrest in MLL leukemia cells; assay type: cell-based; conditions: different MLL leukemia cells; FIG. 9
Kasumi-1 = experiment: Apoptosis in control cell line Kasumi-1 without MLL translocation; assay type: cell-based; conditions: Kasumi-1 control cell line without MLL translocation; FIG. 8B
ML-2 = experiment: Apoptosis in human MLL leukemia cell line ML-2; assay type: cell-based; conditions: FIG. 8A
[3] = test system: MLL-AF9 transformed murine bone marrow cells; experiment: Proliferation of MLL-AF9 transformed murine bone marrow cells; assay type: cell-based; conditions: FIG. 2
[4] = test system: MLL-ENL transformed murine bone marrow cells; experiment: Proliferation of MLL-ENL transformed murine bone marrow cells; assay type: cell-based; conditions: FIG. 2
MV4;11 [5] = experiment: Differentiation of human MLL leukemia cell line MV4;11; assay type: cell-based; conditions: FIG. 6, FIG. 7
KOPN8 = experiment: Differentiation of human MLL leukemia cell line KOPN8; assay type: cell-based; conditions: FIG. 7
MonoMac-6 = experiment: Differentiation of human MLL leukemia cell line MonoMac-6; assay type: cell-based; conditions: FIG. 7
[6] = test system: MLL-AF9 transformed murine bone marrow cells; experiment: Differentiation of MLL-AF9 transformed murine bone marrow cells; assay type: cell-based; conditions: for differentiation as assessed by increased expression of the CD11b differentiation marker: FIG. 4; for differentiation as assessed by significant change in morphology: FIG. 5
Hoxa9 and Meis1 = experiment: Expression level of Hoxa9 and Meis1 in MLL-AF9 transformed bone marrow cells; assay type: cell-based, murine; conditions: FIG. 1B
MI-2 = experiment: Differentiation of human MLL leukemia cell line MI-2; assay type: cell-based; conditions: FIG. 7

| Compound | apoptosis (MV4;11 [1]) | transforming properties of MLL-AF9 fusion protein (colony number, morphology of colonies) [2] | cell cycle arrest (MLL leukemia cells) | apoptosis (Kasumi-1) | apoptosis (ML-2) | inhibition of proliferation [3] | inhibition of proliferation [4] | differentiation (CD11b expression and morphology change) (MV4;11 [5]) | differentiation (change in the CD11b expression and change in morphology of cells) (KOPN8) | differentiation (change in the CD11b expression and change in morphology of cells) (MonoMac-6) | differentiation as assessed by increased expression of the CD11b differentiation marker [6] | differentiation as assessed by significant change in morphology [6] | expression level of Hoxa9 and Meis1 (Hoxa9 and Meis1) | differentiation (change in the CD11b expression and change in morphology of cells) (MI-2) |
| --- | --- | --- | --- | --- | --- | --- | --- | --- | --- | --- | --- | --- | --- | --- |
| N#Cc1ccc(OCCCN2CCC(C(O)c3ccccc3)CC2)cc1 (stereo not shown) [B76 (NC)] | but not the control compound (NC) induce apoptosis | but not NC reduce transforming properties | No such effect | No effect on apoptosis | but not the control compound (NC) induce apoptosis | No such effect | No such effect | – | – | – | – | – | – | – |
| N#Cc1ccc(OCCCN2CCC([C@](O)(c3ccccc3)C3CCCC3)CC2)cc1 [Compound B19] | induce apoptosis | reduce transforming properties | induce cell cycle arrest | No effect on apoptosis | induce apoptosis | – | – | induce differentiation | induce differentiation | induce differentiation | induces differentiation | induces differentiation | strongly downregulates | induce differentiation |
| N#Cc1ccc(OCCCN2CCC([C@@](O)(c3ccccc3)C3CCCC3)CC2)cc1 [Compound B20] | induce apoptosis | reduce transforming properties | induce cell cycle arrest | No effect on apoptosis | induce apoptosis | – | – | induce differentiation | induce differentiation | induce differentiation | induces differentiation | induces differentiation | strongly downregulates | induce differentiation |
